Test [1] addresses Hck (Homo sapiens, UniProt P08631). The experiment in a line: In vitro kinase assay, Hck. In kind it is biochemical. The settings on record: read-out: IC50 Hck, Table 1, triplicate or quadruplicate.
Test [2] addresses Src F278H (Gallus gallus, UniProt P00523, F278H). The experiment in a line: In vitro kinase assay, c-Src F278H kinase domain. It is filed as biochemical. The settings on record: read-out: IC50 Src F278H; Table 2; kinase domain construct.
The target in test [3] is Src E280V (Gallus gallus, UniProt P00523, E280V). Description: In vitro kinase assay, c-Src E280V kinase domain. In kind it is biochemical. The settings on record: read-out: IC50 Src E280V; Table 2; kinase domain construct.
In test [4] the target is Src F382V (Gallus gallus, UniProt P00523, Y382V). The experiment in a line: In vitro kinase assay, c-Src 382V kinase domain. It is filed as biochemical. To be noted: read-out: IC50 Src F382V; Table 2; kinase domain construct.
Test [5] has as its target Src T338I (Gallus gallus, UniProt P00523, T338I). Description: In vitro kinase assay, c-Src T338I kinase domain. In kind it is biochemical. The settings on record: read-out: IC50 Src T338I; Table 2; kinase domain construct.
Test [6] relates to parental Ba/F3 cells. The experiment in a line: Growth of parental Ba/F3 control cells. In kind it is cell-based. The settings on record: 48 hours, media containing IL-3; up to highest concentration tested (5 μM).
Test [7] has as its system BCR-ABL-induced phosphorylation of CrkL. The experiment in a line: BCR-ABL-induced phosphorylation of CrkL in Ba/F3 cells. In kind it is cell-based. The settings on record: Ba/F3 cells expressing native and mutant isoforms of BCR-ABL; data not shown.

Molecules are shown by their SMILES.

Hck, sequence (P08631 whole entry, species assumed, the tested form may be a part): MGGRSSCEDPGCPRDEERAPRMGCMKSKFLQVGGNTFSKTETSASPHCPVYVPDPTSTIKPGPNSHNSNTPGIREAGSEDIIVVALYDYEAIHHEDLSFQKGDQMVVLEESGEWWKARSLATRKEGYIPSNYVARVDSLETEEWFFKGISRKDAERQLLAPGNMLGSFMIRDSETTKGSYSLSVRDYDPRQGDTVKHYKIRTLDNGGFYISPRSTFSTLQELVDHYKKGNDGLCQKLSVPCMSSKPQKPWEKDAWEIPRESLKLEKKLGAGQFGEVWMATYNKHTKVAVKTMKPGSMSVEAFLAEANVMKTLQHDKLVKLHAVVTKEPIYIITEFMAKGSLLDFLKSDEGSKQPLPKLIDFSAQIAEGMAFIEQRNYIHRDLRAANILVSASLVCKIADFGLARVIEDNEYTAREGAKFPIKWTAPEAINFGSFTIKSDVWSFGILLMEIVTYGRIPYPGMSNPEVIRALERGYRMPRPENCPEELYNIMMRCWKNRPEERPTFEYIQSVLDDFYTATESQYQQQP

Consider `COc1ccc(Nc2ncnc(-c3cccnc3Nc3cc(NC(=O)c4ccc(CN5CCN(C)CC5)cc4)ccc3C)n2)cc1` [DSA8], for which the IC50 (commonly the midpoint of a concentration-inhibition curve) in test [1] amounted to 6.6 ± 2.3 nM; in test [2], 7 ± 2 nM; in test [3] it was 4 ± 1.2 nM; in test [4], 4.4 ± 1.7 nM; in test [5], 18 ± 6 nM. In addition, the “Growth of parental Ba/F3 control cells” value in test [6] was “minimally affected”. The “BCR-ABL-induced phosphorylation of CrkL” value in test [7] is reported as “block”.

These data come from article PMC2678021 (Cancer research, 2009).
